Laboratory results published in PMC5218480 (PLoS ONE, 2017).

Test system: MV-4-11 cells
Assay: Gene expression microarray analysis (Affymetrix PrimeView) and GSEA
Assay type: cell-based, human
Set-up: RFU PODN (11730768_x_at) / Fold change /veh PODN (11730768_x_at) / RFU LINC00158 (11744669_a_at) / Fold change /veh LINC00158 (11744669_a_at) / RFU DUSP10 (11751237_a_at) / Fold change /veh DUSP10 (11751237_a_at) / RFU ID3 (11757404_x_at) / Fold change /veh ID3 (11757404_x_at) / RFU PLEKHG5 (11737974_s_at) / Fold change /veh PLEKHG5 (11737974_s_at) / RFU LRRC4B (11730491_at) / Fold change /veh LRRC4B (11730491_at) / RFU GIMAP4 (11747438_a_at) / Fold change /veh GIMAP4 (11747438_a_at) / RFU KRT8 (11758183_x_at) / Fold change /veh KRT8 (11758183_x_at) / RFU CNN1 (11734310_a_at) / Fold change /veh CNN1 (11734310_a_at) / RFU VPS37D (11726825_at) / Fold change /veh VPS37D (11726825_at) / RFU C10orf10 (11716522_x_at) / Fold change /veh C10orf10 (11716522_x_at) / RFU KIR2DL2 /// KIR2DL4 /// KIR2DL5A /// KIR2DL5B /// KIR2DS1 /// KIR2DS2 /// KIR2DS3 /// KIR2DS4 /// KIR3DL3 /// KIR3DL3 /// KIR3DS1 (11738374_at) / Fold change /veh KIR2DL2 /// KIR2DL4 /// KIR2DL5A /// KIR2DL5B /// KIR2DS1 /// KIR2DS2 /// KIR2DS3 /// KIR2DS4 /// KIR3DL3 /// KIR3DL3 /// KIR3DS1 (11738374_at) / RFU C1QL1 (11718748_at) / Fold change /veh C1QL1 (11718748_at) / RFU TMPRSS4 (11747572_a_at) / Fold change /veh TMPRSS4 (11747572_a_at) / RFU HAMP (11756126_x_at) / Fold change /veh HAMP (11756126_x_at) / RFU RNFT2 (11725882_a_at) / Fold change /veh RNFT2 (11725882_a_at) / RFU NR4A2 (11747474_a_at) / Fold change /veh NR4A2 (11747474_a_at) / RFU ABCC12 (11746883_a_at) / Fold change /veh ABCC12 (11746883_a_at) / RFU TMEM136 (11760407_x_at) / Fold change /veh TMEM136 (11760407_x_at) / RFU CLDN22 /// WWC2 (11732394_at) / Fold change /veh CLDN22 /// WWC2 (11732394_at) / RFU HLA-DPB1 (11760878_x_at) / Fold change /veh HLA-DPB1 (11760878_x_at) / RFU SPINT1 (11716480_a_at) / Fold change /veh SPINT1 (11716480_a_at) / RFU GAP43 (11754022_s_at) / Fold change /veh GAP43 (11754022_s_at) / RFU A4GNT (11735810_at) / Fold change /veh A4GNT (11735810_at) / RFU PRB3 (11715151_x_at) / Fold change /veh PRB3 (11715151_x_at) / RFU TUBB4B (11761932_at) / Fold change /veh TUBB4B (11761932_at) / RFU CAPN14 (11732068_a_at) / Fold change /veh CAPN14 (11732068_a_at) / RFU TMCC2 (11721928_a_at) / Fold change /veh TMCC2 (11721928_a_at) / RFU IRGQ (11745062_a_at) / Fold change /veh IRGQ (11745062_a_at) / RFU FAM174B (11720279_a_at) / Fold change /veh FAM174B (11720279_a_at) / RFU TMPRSS4 (11748680_a_at) / Fold change /veh TMPRSS4 (11748680_a_at) / RFU FAM212B (11763350_a_at) / Fold change /veh FAM212B (11763350_a_at) / RFU PLEKHG5 (11743358_a_at) / Fold change /veh PLEKHG5 (11743358_a_at) / RFU ZSCAN30 (11745921_a_at) / Fold change /veh ZSCAN30 (11745921_a_at) / RFU CMKLR1 (11741424_a_at) / Fold change /veh CMKLR1 (11741424_a_at) / RFU LOC101060620 /// MAPK8IP1 (11723275_at) / Fold change /veh LOC101060620 /// MAPK8IP1 (11723275_at) / RFU SPTSSB (11747773_x_at) / Fold change /veh SPTSSB (11747773_x_at) / RFU PRSS12 (11739890_at) / Fold change /veh PRSS12 (11739890_at) / RFU BIN1 (11741810_x_at) / Fold change /veh BIN1 (11741810_x_at) / RFU WNT11 (11732464_a_at) / Fold change /veh WNT11 (11732464_a_at) / RFU C10orf10 (11716521_a_at) / Fold change /veh C10orf10 (11716521_a_at) / RFU C5orf56 (11738089_at) / Fold change /veh C5orf56 (11738089_at) / RFU CYB561 (11721691_x_at) / Fold change /veh CYB561 (11721691_x_at) / RFU ANKRD19P (11752326_a_at) / Fold change /veh ANKRD19P (11752326_a_at) / RFU OR2T12 /// OR2T33 /// OR2T8 (11738714_s_at) / Fold change /veh OR2T12 /// OR2T33 /// OR2T8 (11738714_s_at) / RFU VCAN (11748164_a_at) / Fold change /veh VCAN (11748164_a_at) / RFU JSRP1 (11732532_at) / Fold change /veh JSRP1 (11732532_at) / RFU KRTAP10-11 (11738290_x_at) / Fold change /veh KRTAP10-11 (11738290_x_at) / RFU MYO3A (11730013_a_at) / Fold change /veh MYO3A (11730013_a_at) / RFU EBF3 (11725865_a_at) / Fold change /veh EBF3 (11725865_a_at) / RFU CAMK2N1 (11719241_x_at) / Fold change /veh CAMK2N1 (11719241_x_at) / RFU C5orf56 (11738088_a_at) / Fold change /veh C5orf56 (11738088_a_at) / RFU OLFML3 (11715873_a_at) / Fold change /veh OLFML3 (11715873_a_at) / RFU LOC100653217 /// NTM (11731650_a_at) / Fold change /veh LOC100653217 /// NTM (11731650_a_at) / RFU MAPK11 (11762145_a_at) / Fold change /veh MAPK11 (11762145_a_at) / RFU FIZ1 (11724087_x_at) / Fold change /veh FIZ1 (11724087_x_at) / RFU OASL (11726364_x_at) / Fold change /veh OASL (11726364_x_at) / RFU SOX15 (11748057_x_at) / Fold change /veh SOX15 (11748057_x_at) / RFU CD79A (11719716_a_at) / Fold change /veh CD79A (11719716_a_at) / RFU HIST1H1D (11736915_at) / Fold change /veh HIST1H1D (11736915_at) / RFU CASKIN2 (11723855_a_at) / Fold change /veh CASKIN2 (11723855_a_at) / RFU LOC730098 (11760151_x_at) / Fold change /veh LOC730098 (11760151_x_at) / RFU OR4N2 (11742367_at) / Fold change /veh OR4N2 (11742367_at) / RFU PRRT2 (11749266_a_at) / Fold change /veh PRRT2 (11749266_a_at) / RFU SNX32 (11753110_a_at) / Fold change /veh SNX32 (11753110_a_at) / RFU CDHR5 (11726645_a_at) / Fold change /veh CDHR5 (11726645_a_at) / RFU RCAN1 (11760418_a_at) / Fold change /veh RCAN1 (11760418_a_at) / RFU FAM167A (11723789_a_at) / Fold change /veh FAM167A (11723789_a_at) / RFU FAM26E (11764081_at) / Fold change /veh FAM26E (11764081_at) / RFU ISYNA1 (11749810_s_at) / Fold change /veh ISYNA1 (11749810_s_at) / RFU ACY1 (11761880_at) / Fold change /veh ACY1 (11761880_at) / RFU 11764098_at / Fold change /veh 11764098_at / RFU SAMD14 (11745864_x_at) / Fold change /veh SAMD14 (11745864_x_at) / RFU NPB (11741838_a_at) / Fold change /veh NPB (11741838_a_at) / RFU TMPRSS6 (11731388_a_at) / Fold change /veh TMPRSS6 (11731388_a_at) / RFU KRTAP10-2 (11738614_at) / Fold change /veh KRTAP10-2 (11738614_at) / RFU ARHGAP8 /// PRR5-ARHGAP8 (11727945_x_at) / Fold change /veh ARHGAP8 /// PRR5-ARHGAP8 (11727945_x_at) / RFU KRTAP5-7 /// NADSYN1 (11734609_at) / Fold change /veh KRTAP5-7 /// NADSYN1 (11734609_at) / RFU RASL12 (11751679_a_at) / Fold change /veh RASL12 (11751679_a_at) / RFU CDKN2B (11736163_a_at) / Fold change /veh CDKN2B (11736163_a_at) / RFU PRF1 (11729649_at) / Fold change /veh PRF1 (11729649_at) / RFU, ZNF638 /// ZNF638-IT1 / Fold change vs veh, ZNF638 /// ZNF638-IT1 / RFU, PANK3 / Fold change vs veh, PANK3 / RFU, SH3YL1 / Fold change vs veh, SH3YL1 / RFU, ZEB2 / Fold change vs veh, ZEB2 / RFU, NRIP1 / Fold change vs veh, NRIP1 / RFU, PTTG1IP / Fold change vs veh, PTTG1IP / RFU, CAPN2 / Fold change vs veh, CAPN2 / RFU, MED14 / Fold change vs veh, MED14 / RFU, SNORA58 / Fold change vs veh, SNORA58 / RFU, C1orf63 / Fold change vs veh, C1orf63 / RFU, LRRFIP1 / Fold change vs veh, LRRFIP1 / RFU, NDUFAF7 / Fold change vs veh, NDUFAF7 / RFU, SLC12A2 / Fold change vs veh, SLC12A2 / RFU, IBTK / Fold change vs veh, IBTK / RFU, ESF1 / Fold change vs veh, ESF1 / Fold change vs veh, TMEM50B / RFU, TAOK1 / Fold change vs veh, TAOK1 / RFU, ACBD3 / Fold change vs veh, ACBD3 / RFU, TMA16 / Fold change vs veh, TMA16 / RFU, RWDD3 / Fold change vs veh, RWDD3 / RFU, BCAT1 / Fold change vs veh, BCAT1 / RFU, EDEM3 / Fold change vs veh, EDEM3 / RFU, TMEM33 / Fold change vs veh, TMEM33 / RFU, WDR75 / Fold change vs veh, WDR75 / RFU, AHCTF1 / Fold change vs veh, AHCTF1 / RFU, TFRC / Fold change vs veh, TFRC / RFU, ZDHHC17 / Fold change vs veh, ZDHHC17 / RFU, NOM1 / Fold change vs veh, NOM1 / RFU, ARL8B / Fold change vs veh, ARL8B / RFU, ZBTB11 / Fold change vs veh, ZBTB11 / RFU, TAMM41 / Fold change vs veh, TAMM41 / RFU, KIAA1704 /// LOC100996395 / Fold change vs veh, KIAA1704 /// LOC100996395 / RFU, ING1 / Fold change vs veh, ING1 / RFU, TRMT61B / Fold change vs veh, TRMT61B / RFU, FUBP3 / Fold change vs veh, FUBP3 / RFU, TP53 / Fold change vs veh, TP53 / RFU, TNKS2 / Fold change vs veh, TNKS2 / RFU, ZFP14 / Fold change vs veh, ZFP14 / RFU, ACTR2 / Fold change vs veh, ACTR2 / RFU, PPP3R1 / Fold change vs veh, PPP3R1 / RFU, PIK3R1 / Fold change vs veh, PIK3R1 / RFU, HNRNPA1 / Fold change vs veh, HNRNPA1 / RFU, RNF170 / Fold change vs veh, RNF170 / RFU, ZNF28 / Fold change vs veh, ZNF28 / RFU, RNGTT / Fold change vs veh, RNGTT / RFU, OGT / Fold change vs veh, OGT / RFU, BRD1 / Fold change vs veh, BRD1 / RFU, MARS / Fold change vs veh, MARS / RFU, ZNF655 / Fold change vs veh, ZNF655 / RFU, FAHD1 / Fold change vs veh, FAHD1 / RFU, BDP1 / Fold change vs veh, BDP1 / RFU, LRRCC1 / Fold change vs veh, LRRCC1 / RFU, ARID1A / Fold change vs veh, ARID1A / RFU, ZNF146 / Fold change vs veh, ZNF146 / RFU, ZNF330 / Fold change vs veh, ZNF330 / RFU, GPN3 / Fold change vs veh, GPN3 / RFU, C9orf123 / Fold change vs veh, C9orf123 / RFU, N4BP2L2 / Fold change vs veh, N4BP2L2 / RFU, ARFIP1 / Fold change vs veh, ARFIP1 / RFU, FAM179B / Fold change vs veh, FAM179B / RFU, BCL10 / Fold change vs veh, BCL10 / RFU, UHRF1BP1L / Fold change vs veh, UHRF1BP1L / RFU, BET1 / Fold change vs veh, BET1 / RFU, CNOT2 / Fold change vs veh, CNOT2 / RFU, ZNF268 / Fold change vs veh, ZNF268 / Fold change vs veh, ZNF507 / RFU, DGCR2 / Fold change vs veh, DGCR2 / RFU, WDSUB1 / Fold change vs veh, WDSUB1 / Fold change vs veh, HSP90B1 /// MIR3652 / RFU, ADSS / Fold change vs veh, ADSS / RFU, GK / Fold change vs veh, GK / RFU, ZNF148 / Fold change vs veh, ZNF148 / RFU, TAF9 / Fold change vs veh, TAF9 / RFU, SLC1A5 / Fold change vs veh, SLC1A5 / RFU, SLMO2 / Fold change vs veh, SLMO2 / RFU, ABCC4 / Fold change vs veh, ABCC4 / RFU, LOC101060439 /// RAP1B / Fold change vs veh, LOC101060439 /// RAP1B / RFU, RFX7 / Fold change vs veh, RFX7 / RFU, GTPBP10 / Fold change vs veh, GTPBP10 / RFU, CNEP1R1 / Fold change vs veh, CNEP1R1 / RFU, BIVM-ERCC5 /// ERCC5 / Fold change vs veh, BIVM-ERCC5 /// ERCC5 / RFU, ILF3 / Fold change vs veh, ILF3 / RFU 11762660_at / Fold change /veh 11762660_at / RFU VCAN (11757783_s_at) / Fold change /veh VCAN (11757783_s_at) / RFU DDX43 (11728927_at) / Fold change /veh DDX43 (11728927_at) / RFU KRT8 (11758188_x_at) / Fold change /veh KRT8 (11758188_x_at) / RFU NKD1 (11759106_at) / Fold change /veh NKD1 (11759106_at) / RFU SRD5A1 (11742802_a_at) / Fold change /veh SRD5A1 (11742802_a_at) / RFU TPSAB1 /// TPSB2 (11721975_s_at) / Fold change /veh TPSAB1 /// TPSB2 (11721975_s_at) / RFU GSTM3 (11746129_a_at) / Fold change /veh GSTM3 (11746129_a_at) / RFU IL23R (11737362_x_at) / Fold change /veh IL23R (11737362_x_at) / RFU TMEM51 (11727254_a_at) / Fold change /veh TMEM51 (11727254_a_at) / RFU PIWIL2 (11732686_x_at) / Fold change /veh PIWIL2 (11732686_x_at) / RFU ORM1 (11744905_x_at) / Fold change /veh ORM1 (11744905_x_at) / RFU CCDC152 (11743942_at) / Fold change /veh CCDC152 (11743942_at) / RFU ECM1 (11717891_a_at) / Fold change /veh ECM1 (11717891_a_at) / RFU IL23R (11748794_a_at) / Fold change /veh IL23R (11748794_a_at) / RFU TNFAIP8L3 (11732012_x_at) / Fold change /veh TNFAIP8L3 (11732012_x_at) / RFU MBOAT4 (11741988_at) / Fold change /veh MBOAT4 (11741988_at) / RFU 11764193_at / Fold change /veh 11764193_at / RFU TMEM53 (11763286_at) / Fold change /veh TMEM53 (11763286_at) / RFU MAGEB2 (11727129_at) / Fold change /veh MAGEB2 (11727129_at) / RFU TMEM200A (11744735_a_at) / Fold change /veh TMEM200A (11744735_a_at) / RFU CCDC152 (11751479_a_at) / Fold change /veh CCDC152 (11751479_a_at) / RFU FAM211A (11726209_a_at) / Fold change /veh FAM211A (11726209_a_at) / RFU RGS16 (11746705_a_at) / Fold change /veh RGS16 (11746705_a_at) / RFU VCAN (11755009_s_at) / Fold change /veh VCAN (11755009_s_at) / RFU RHOB (11743442_s_at) / Fold change /veh RHOB (11743442_s_at) / RFU RGS16 (11720943_a_at) / Fold change /veh RGS16 (11720943_a_at) / RFU RGS16 (11720944_at) / Fold change /veh RGS16 (11720944_at) / RFU, VPS4B / Fold change vs veh, VPS4B / RFU, CREB1 / Fold change vs veh, CREB1 / RFU, DNAJC13 / Fold change vs veh, DNAJC13 / RFU, GNAQ / Fold change vs veh, GNAQ / RFU, CDK5R1 / Fold change vs veh, CDK5R1 / RFU, ZRANB3 / Fold change vs veh, ZRANB3 / RFU, CUL4A / Fold change vs veh, CUL4A / RFU, CCNY / Fold change vs veh, CCNY / RFU, UFL1 / Fold change vs veh, UFL1 / RFU, COG3 / Fold change vs veh, COG3 / RFU, DIAPH2 / Fold change vs veh, DIAPH2 / RFU, SKA2 / Fold change vs veh, SKA2 / RFU, AFF3 / Fold change vs veh, AFF3 / RFU, LMF1 / Fold change vs veh, LMF1 / RFU, IPO11 / Fold change vs veh, IPO11 / RFU, DFFB / Fold change vs veh, DFFB / RFU, FOXP1 / Fold change vs veh, FOXP1 / RFU, CARD8 / Fold change vs veh, CARD8 / RFU, STRN3 / Fold change vs veh, STRN3 / RFU, ADK / Fold change vs veh, ADK / RFU, RASSF2 / Fold change vs veh, RASSF2 / RFU, WIPF1 / Fold change vs veh, WIPF1 / RFU, LARP1B / Fold change vs veh, LARP1B / RFU, RASA1 / Fold change vs veh, RASA1 / RFU, RB1 / Fold change vs veh, RB1 / RFU, PPFIA1 / Fold change vs veh, PPFIA1 / RFU, MAT2A / Fold change vs veh, MAT2A / RFU, CCT5 / Fold change vs veh, CCT5 / RFU, WDR92 / Fold change vs veh, WDR92 / RFU, CUX1 / Fold change vs veh, CUX1 / RFU, TTC7A / Fold change vs veh, TTC7A / RFU, TMEM135 / Fold change vs veh, TMEM135 / RFU, DEPTOR / Fold change vs veh, DEPTOR / RFU, CPM / Fold change vs veh, CPM / RFU, DNAJB6 / Fold change vs veh, DNAJB6 / RFU, CACNA2D3 / Fold change vs veh, CACNA2D3 / RFU, DTX4 / Fold change vs veh, DTX4 / RFU, TFCP2 / Fold change vs veh, TFCP2 / RFU, GMCL1 /// GMCL1P1 / Fold change vs veh, GMCL1 /// GMCL1P1 / RFU, AEBP2 / Fold change vs veh, AEBP2 / RFU, SNHG1 /// SNORD22 /// SNORD25 /// SNORD26 /// SNORD27 /// SNORD28 /// SNORD29 /// SNORD31 / Fold change vs veh, SNHG1 /// SNORD22 /// SNORD25 /// SNORD26 /// SNORD27 /// SNORD28 /// SNORD29 /// SNORD31 / Fold change (Aza/veh), C12orf56 (ProbeSet 11735607_a_at) / Fold change (ACY-1035/veh), C12orf56 (ProbeSet 11735607_a_at) / Fold change (Aza/veh), FGFR1OP (ProbeSet 11751329_s_at) / Fold change (ACY-1035/veh), FGFR1OP (ProbeSet 11751329_s_at) / Fold change (Aza/veh), VPS36 (ProbeSet 11739960_a_at) / Fold change (ACY-1035/veh), VPS36 (ProbeSet 11739960_a_at) / RFU SYPL1 (11715823_x_at) / Fold change /veh SYPL1 (11715823_x_at) / RFU IGFBP7 (11715501_s_at) / Fold change /veh IGFBP7 (11715501_s_at) / RFU REEP3 (11722064_at) / Fold change /veh REEP3 (11722064_at) / RFU IGLL1 (11728026_x_at) / Fold change /veh IGLL1 (11728026_x_at): dose or concentration left out as unconfirmed
Conditions: ProbeSet 11731610_x_at; LIST B

## Nc1ccc(-c2cccs2)cc1NC(=O)c1ccc2c(c1)cc(C1CC1)n2CCN1CCOCC1 [ACY-1035]
  Fold change vs veh, KIAA1704 /// LOC100996395: 0.91
